Test systems include DLD-1 colon; DMS 273 small cell lung; LXFL 529 NSCLC; SNB-78 CNS; XF 498 CNS; HS 578T breast; MCF7 breast; MDA-MB-435; PC-3 prostate; T-47D breast.
Holding throughout (experiment): DTP human tumour cell line panel, 48 h

Drawing on PubChem BioAssay (NCI), this text covers TGI and GI50 for 21 compounds.

The TGI is the concentration giving total growth inhibition. For orientation: GI50 means the concentration giving 50% growth inhibition.

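Five compound concentrations were applied to cells in 96-well plates for 48 hours; endpoints were derived by simple linear interpolation of the resulting dose-response curve. The concentration for 50% growth inhibition is given as GI50. TGI marks complete inhibition of growth.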

In the case of `CCOc1ccc(C(CN2CCOCC2)C(C)=O)cc1OC` (centres undefined), the TGI in the experiment on DLD-1 colon is 27.9 µM; with DMS 273 small cell lung it was 23.3 µM; in the experiment with LXFL 529 NSCLC, 17 µM; in the experiment with SNB-78 CNS it was 66.8 µM; with XF 498 CNS, 40.8 µM.
Take `CCCCCCCCCCCCCCCCOC(=O)c1cc(O)cc(C(=O)OCCCCCCCCCCCCCCCC)c1`: the TGI with DMS 273 small cell lung, in the experiment on LXFL 529 NSCLC and in the experiment on SNB-78 CNS was > 100 µM in each case.
`C[C@@H]1C[C@]2(C[C@@H](C)C3[C@@H](CC4(C)[C@@H]5CCC6C(C)(C)OC(=O)C=C[C@]67C[C@@]5(CC[C@]34C)OO7)O2)OC1=O` (some centres undefined): the TGI in the experiment on DLD-1 colon was > 100 µM; in the experiment with DMS 273 small cell lung, > 100 µM; in the experiment with LXFL 529 NSCLC, > 100 µM; in the experiment on SNB-78 CNS, > 100 µM; in the experiment on XF 498 CNS it was 73.9 µM.
With `Cc1ccc(C(C)C)cc1NC(=O)Nc1ccc([N+](=O)[O-])cc1`, the GI50 is 1.66 µM in the experiment on HS 578T breast; 1.95 µM in the experiment with MCF7 breast; 2.19 µM in the experiment on MDA-MB-435; 2.75 µM with PC-3 prostate; 1.99 µM with T-47D breast. Moreover, the total growth inhibition concentration (TGI) in the experiment on HS 578T breast is 5.18 µM; with MCF7 breast, 5.72 µM; in the experiment with MDA-MB-435, 6.5 µM; with PC-3 prostate it was 12.2 µM; in the experiment with T-47D breast it was 7.36 µM.
For the compound `COc1cnc2cc(C(=O)O)c3ccccc3c2c1`, the TGI in the experiment with HS 578T breast, with MCF7 breast, with MDA-MB-435, in the experiment with PC-3 prostate and in the experiment on T-47D breast was > 100 µM each time.
Consider `CN1CCN(c2nc(-c3ccncc3)nc3sc4c(c23)CCCCCC4)CC1`, for which the GI50 in the experiment with HS 578T breast is 2.3 µM; in the experiment with MCF7 breast, 6.61 µM; in the experiment with MDA-MB-435 it was 11.8 µM; with PC-3 prostate, 4.71 µM; with T-47D breast, 13.5 µM. For the same compound, the TGI came to 13.9 µM in the experiment with HS 578T breast; 20.4 µM in the experiment with MCF7 breast; 26 µM in the experiment on MDA-MB-435; 18.2 µM in the experiment on PC-3 prostate; 29.3 µM in the experiment on T-47D breast.
With `COc1cc2cc3c4c(cc(OC)c(OC)c4c2cc1OC)CCN3C(=O)CCC(=O)NCCCN(C)C`, the TGI in the experiment on DLD-1 colon is 30.9 µM; in the experiment on DMS 273 small cell lung, > 100 µM; in the experiment on LXFL 529 NSCLC it was > 100 µM; with SNB-78 CNS, > 100 µM; with XF 498 CNS, > 100 µM.
In the case of `C/C=C1\C(=O)OC2CCN3CCC(COC(=O)C(C)(O)C(C)C1O)C23` (centres undefined), the TGI with HS 578T breast, in the experiment with MCF7 breast, with MDA-MB-435, in the experiment on PC-3 prostate and in the experiment on T-47D breast was > 100 µM throughout.
On to `COC(OC)c1cc2c(cc1C(=O)[C@@]13CCC[C@@H]1NC(=O)O3)OCO2`, for which the TGI in the experiment with DLD-1 colon, in the experiment on DMS 273 small cell lung, with SNB-78 CNS and with XF 498 CNS was > 100 µM throughout.
For the compound `COc1ccc2nc3ccccc3c(NCCCCN(C)CCCl)c2c1`, the TGI in the experiment on DLD-1 colon came out at 0.964 µM; with DMS 273 small cell lung, 0.283 µM; with LXFL 529 NSCLC, 0.189 µM; in the experiment with MCF7 breast, 0.172 µM; with MDA-MB-435 it was 0.325 µM; in the experiment on SNB-78 CNS, 0.674 µM. The compound further displayed a TGI with XF 498 CNS of 0.293 µM.
On to `CCSC(SCC)=C1C(=O)N(c2ccccc2)N=C1C`, for which the TGI in the experiment on DLD-1 colon amounted to 26.8 µM; in the experiment on DMS 273 small cell lung, 32 µM; in the experiment on LXFL 529 NSCLC, 22.6 µM; in the experiment with SNB-78 CNS, 46.3 µM; in the experiment on XF 498 CNS, 22.7 µM.
For `O=C1c2ccccc2C(=O)c2nc3ccc(Cl)cc3cc21` the same measures were > 100 µM, > 100 µM, > 100 µM, > 100 µM and > 100 µM.
For the compound `CN1CCc2c1nc(-c1ccc([N+](=O)[O-])cc1)c1c2N(C)CC1`, the TGI in the experiment on DLD-1 colon, in the experiment with LXFL 529 NSCLC, in the experiment with SNB-78 CNS and in the experiment on XF 498 CNS was > 100 µM in each case.
Consider `C[C@]12CC[C@H](OC3CCCCO3)CC1=CC[C@@H]1C2CC[C@]2(C)/C(=N/O)CCC12` (some centres undefined), for which the concentration for total growth inhibition (TGI) in the experiment with DLD-1 colon is > 100 µM; in the experiment on DMS 273 small cell lung, 51.8 µM; with LXFL 529 NSCLC, 45.6 µM; with SNB-78 CNS, 64.4 µM; in the experiment with XF 498 CNS, 68.6 µM.
For the compound `Oc1[nH]c2cc(Cl)ccc2c1/C=c1/ccc2c(c1)N=C(c1cc(F)cc(F)c1)N=2`, the GI50 with HS 578T breast is 1.55 µM; in the experiment with MCF7 breast, 1.62 µM; in the experiment on MDA-MB-435 it was 0.57 µM; with PC-3 prostate, 2.12 µM; with T-47D breast, 4.27 µM. Moreover, the TGI with HS 578T breast was found to be 10.2 µM; in the experiment on MCF7 breast it was 11.3 µM; in the experiment on MDA-MB-435, 2.38 µM; in the experiment with PC-3 prostate, 8.5 µM; in the experiment with T-47D breast, 17.7 µM.
As for `O=c1cc(-c2ccccn2)[nH]c2ccc(Cl)cc12`, the TGI in the experiment on DLD-1 colon, in the experiment with LXFL 529 NSCLC, in the experiment with SNB-78 CNS and in the experiment on XF 498 CNS was > 100 µM throughout.
`Cc1nc(N)nc2ccccc12`: the TGI in the experiment with HS 578T breast, in the experiment on MCF7 breast, in the experiment with MDA-MB-435, in the experiment with PC-3 prostate and in the experiment on T-47D breast was > 100 µM throughout.
For `COc1ccc(S(=O)(=O)N(C)CC(=O)O)cc1`, the TGI in the experiment on DLD-1 colon, with DMS 273 small cell lung, in the experiment with LXFL 529 NSCLC and with XF 498 CNS was > 100 µM throughout.
Consider `CC(=O)C1C(=O)N(C(C)C)C[C@@H]2CCC(=O)C[C@H]12` (some centres undefined), for which the TGI in the experiment on DLD-1 colon, in the experiment on DMS 273 small cell lung, with LXFL 529 NSCLC, in the experiment on SNB-78 CNS and with XF 498 CNS was > 100 µM each time.
On to `Cc1nc(-n2nc(-c3ccccc3)cc2-c2ccccc2)sc1C(/C=C/c1ccc([N+](=O)[O-])cc1)=N/NC(=O)c1ccncc1`, for which the values for the TGI in the experiment with DLD-1 colon, in the experiment on LXFL 529 NSCLC and in the experiment on SNB-78 CNS were 33.2 µM, 43.2 µM and 61 µM, respectively.
Consider `CC(NC(=O)c1ccccc1)(C(=O)O)C(=O)O`, for which the TGI in the experiment on HS 578T breast, in the experiment on MCF7 breast, in the experiment with MDA-MB-435, in the experiment on PC-3 prostate and in the experiment with T-47D breast was > 100 µM throughout.
